Experimental data as given in ChEMBL document CHEMBL3228036, “A new chemical series active against African trypanosomes: benzyltriphenylphosphonium salts” (J Med Chem, 1979).
Active and inactive are the calls of the source. The rule behind the calls is not given here.

Key:
[1] = tested on: Trypanosoma brucei rhodesiense; test: […] activity against Trypanosoma brucei rhodesiense Wellcome CT infected in ICR/HA mouse assessed as curated mouse at 26.5 mg/kg, po treated within 2 hrs of parasite infection measured up to 30 days; type: functional, organism-based; design: dose 26.5 mg/kg
[2] = tested on: Trypanosoma brucei rhodesiense; test: […] activity against Trypanosoma brucei rhodesiense Wellcome CT infected in ICR/HA mouse assessed as curated mouse at 6.5 mg/kg, sc treated within 2 hrs of parasite infection measured up to 30 days; type: functional, organism-based; design: dose 6.5 mg/kg
[3] = tested on: Trypanosoma brucei rhodesiense; test: […] activity against Trypanosoma brucei rhodesiense Wellcome CT infected in ICR/HA mouse assessed as curated mouse at 13.3 mg/kg, sc treated within 2 hrs of parasite infection measured up to 30 days; type: functional, organism-based; design: dose 13.3 mg/kg
Mus musculus [4] = test: Toxicity in Trypanosoma brucei rhodesiense Wellcome CT infected ICR/HA mouse assessed as mortality at 424 mg/kg, po treated within 2 hrs of parasite infection measured up to 30 days; type: organism-based; design: dose 424 mg/kg, route oral; settings: in vivo
[5] = tested on: Trypanosoma brucei rhodesiense; test: […] activity against Trypanosoma brucei rhodesiense Wellcome CT infected in ICR/HA mouse assessed as curated mouse at 53 mg/kg, po treated within 2 hrs of parasite infection measured up to 30 days; type: functional, organism-based; design: dose 53 mg/kg
[6] = tested on: Trypanosoma brucei rhodesiense; test: […] activity against Trypanosoma brucei rhodesiense Wellcome CT infected in ICR/HA mouse assessed as curated mouse at 13.3 mg/kg, po treated within 2 hrs of parasite infection measured up to 30 days; type: functional, organism-based; design: dose 13.3 mg/kg
[7] = tested on: Trypanosoma brucei rhodesiense; test: […] activity against Trypanosoma brucei rhodesiense Wellcome CT infected in ICR/HA mouse assessed as curated mouse at 106 mg/kg, sc treated within 2 hrs of parasite infection measured up to 30 days; type: functional, organism-based; design: dose 106 mg/kg
Mus musculus [8] = test: Toxicity in Trypanosoma brucei rhodesiense Wellcome CT infected ICR/HA mouse assessed as mortality at 424 mg/kg, sc treated within 2 hrs of parasite infection measured up to 30 days; type: organism-based; design: dose 424 mg/kg, route subcutaneous; settings: in vivo
[9] = tested on: Trypanosoma brucei rhodesiense; test: […] activity against Trypanosoma brucei rhodesiense Wellcome CT infected in ICR/HA mouse assessed as curated mouse at 53 mg/kg, sc treated within 2 hrs of parasite infection measured up to 30 days; type: functional, organism-based; design: dose 53 mg/kg
[10] = tested on: Trypanosoma brucei rhodesiense; test: […] activity against Trypanosoma brucei rhodesiense Wellcome CT infected in ICR/HA mouse assessed as curated mouse at 424 mg/kg, po treated within 2 hrs of parasite infection measured up to 30 days; type: functional, organism-based; design: dose 424 mg/kg
[11] = tested on: Trypanosoma brucei rhodesiense; test: […] activity against Trypanosoma brucei rhodesiense Wellcome CT infected in ICR/HA mouse assessed as curated mouse at 424 mg/kg, sc treated within 2 hrs of parasite infection measured up to 30 days; type: functional, organism-based; design: dose 424 mg/kg
[12] = tested on: Trypanosoma brucei rhodesiense; test: […] activity against Trypanosoma brucei rhodesiense Wellcome CT infected in ICR/HA mouse assessed as curated mouse at 26.5 mg/kg, sc treated within 2 hrs of parasite infection measured up to 30 days; type: functional
[13] = tested on: Trypanosoma brucei rhodesiense; test: […] activity against Trypanosoma brucei rhodesiense Wellcome CT infected in ICR/HA mouse assessed as curated mouse at 106 mg/kg, po treated within 2 hrs of parasite infection measured up to 30 days; type: functional, organism-based; design: dose 106 mg/kg
Mus musculus [14] = test: Toxicity in Trypanosoma brucei rhodesiense Wellcome CT infected ICR/HA mouse assessed as mortality at 212 mg/kg, sc treated within 2 hrs of parasite infection measured up to 30 days; type: organism-based; design: dose 212 mg/kg, route subcutaneous; settings: in vivo
Mus musculus [15] = test: Toxicity in Trypanosoma brucei rhodesiense Wellcome CT infected ICR/HA mouse assessed as mortality at 212 mg/kg, po treated within 2 hrs of parasite infection measured up to 30 days; type: organism-based; design: dose 212 mg/kg, route oral; settings: in vivo
[16] = tested on: Trypanosoma brucei rhodesiense; test: […] activity against Trypanosoma brucei rhodesiense Wellcome CT infected in ICR/HA mouse assessed as curated mouse at 212 mg/kg, po treated within 2 hrs of parasite infection measured up to 30 days; type: functional, organism-based; design: dose 212 mg/kg
[17] = tested on: Trypanosoma brucei rhodesiense; test: […] activity against Trypanosoma brucei rhodesiense Wellcome CT infected in ICR/HA mouse assessed as curated mouse at 212 mg/kg, sc treated within 2 hrs of parasite infection measured up to 30 days; type: functional, organism-based; design: dose 212 mg/kg
[18] = tested on: Trypanosoma brucei rhodesiense; test: […] activity against Trypanosoma brucei rhodesiense Wellcome CT infected in ICR/HA mouse assessed as curated mouse at 6.5 mg/kg, po treated within 2 hrs of parasite infection measured up to 30 days; type: functional, organism-based; design: dose 6.5 mg/kg

Row | Structure (SMILES) | Activity [1] | Activity [2] | Activity [3] | Activity (Mus musculus [4]) | Activity [5] | Activity [6] | Activity [7] | Activity (Mus musculus [8]) | Activity [9] | Activity [10] | Activity [11] | Activity [12] | Activity [13] | Activity (Mus musculus [14]) | Activity ([12]; route subcutaneous) [%] | Activity (Mus musculus [15]) | Activity [16] | Activity [17] | Activity [18]
1 | Cc1ccccc1[P+](Cc1ccccc1)(c1ccccc1)c1ccccc1.[Cl-] | inactive | inactive | inactive | Toxic | inactive | inactive | inactive | Toxic | inactive | inactive | inactive | – | – | – | – | – | – | – | –
2 | Cc1ccccc1[P+](Cc1ccccc1)(c1ccccc1C)c1ccccc1C.[Cl-] | inactive | – | inactive | Toxic | – | inactive | inactive | Toxic | – | inactive | inactive | inactive | inactive | – | – | – | – | – | –
3 | Cc1ccccc1C[P+](c1ccccc1)(c1ccccc1)c1ccccc1.[Br-] | – | – | – | Toxic | – | – | – | Toxic | – | – | – | – | – | Toxic | – | – | – | – | –
4 | Cc1ccccc1C[P+](c1ccccc1)(c1ccccc1)c1ccccc1.[Cl-] | – | – | – | – | – | – | – | Toxic | – | – | – | – | – | Toxic | 40 | – | – | – | –
5 | CC(C)(C)c1cc(C[P+](c2ccccc2)(c2ccccc2)c2ccccc2)cc(C(C)(C)C)c1O.[Br-] | inactive | – | inactive | – | inactive | inactive | inactive | – | inactive | inactive | inactive | inactive | inactive | – | – | Toxic | inactive | inactive | –
6 | Clc1ccc(OC[P+](c2ccccc2)(c2ccccc2)c2ccccc2)cc1.[Cl-] | – | – | inactive | – | – | – | – | Toxic | – | inactive | inactive | inactive | – | – | – | – | – | – | –
7 | Clc1ccccc1C[P+](c1ccccc1)(c1ccccc1)c1ccccc1.[Cl-] | inactive | – | inactive | Toxic | inactive | inactive | – | Toxic | – | inactive | inactive | – | inactive | Toxic | – | Toxic | inactive | inactive | –
8 | Cc1ccccc1[P+](Cc1ccccc1)(c1ccccc1)c1ccccc1C.[Cl-] | – | – | inactive | – | inactive | inactive | – | Toxic | – | inactive | inactive | – | – | Toxic | – | Toxic | inactive | inactive | –
9 | Cc1cccc([P+](Cc2ccccc2)(c2cccc(C)c2)c2cccc(C)c2)c1.[Cl-] | inactive | – | inactive | – | inactive | inactive | inactive | Toxic | – | – | inactive | – | inactive | – | – | – | – | – | –
10 | [Br-].c1ccc(C[P+](c2ccccc2)(c2ccccc2)c2ccccc2)cc1 | inactive | inactive | inactive | – | inactive | inactive | inactive | Toxic | inactive | – | inactive | inactive | – | – | – | Toxic | inactive | – | –
11 | CCCCCCCCCCCC[P+](c1ccccc1)(c1ccccc1)c1ccccc1 | – | – | – | – | – | – | inactive | – | – | inactive | inactive | inactive | – | – | – | – | – | inactive | –
12 | COC(=O)c1ccccc1C[P+](c1ccccc1)(c1ccccc1)c1ccccc1 | – | – | inactive | – | – | – | – | – | – | – | – | inactive | – | – | – | – | – | – | –
13 | [I-].c1ccc(CC(c2ccccc2)[P+](c2ccccc2)(c2ccccc2)c2ccccc2)cc1 (configuration not stated) | – | – | inactive | – | – | – | inactive | Toxic | – | inactive | inactive | inactive | – | – | – | – | – | – | –
14 | Cc1ccc(C[P+](c2ccccc2)(c2ccccc2)c2ccccc2)cc1 | inactive | inactive | inactive | – | inactive | inactive | inactive | – | inactive | inactive | inactive | inactive | inactive | – | – | – | inactive | inactive | –
15 | C=CC[P+](c1ccccc1)(c1ccccc1)c1ccccc1.[Br-] | – | – | inactive | – | – | – | – | Toxic | – | inactive | inactive | inactive | – | – | – | – | – | – | –
16 | N=C(N)c1ccc(/C=C/c2ccc(C(=N)N)cc2O)cc1 [HYDROXYSTILBAMIDINE] | – | – | – | – | – | – | – | – | – | – | – | – | – | – | 71 | – | – | – | –
17 | Cc1ccc(C[P+](c2ccccc2)(c2ccccc2)c2ccccc2)cc1.[Cl-] | – | – | – | – | – | – | – | Toxic | – | – | – | – | – | – | 20 | – | – | – | –
18 | Cc1ccccc1C[P+](c1ccccc1)(c1ccccc1)c1ccccc1 | inactive | – | inactive | – | inactive | inactive | inactive | – | inactive | inactive | inactive | inactive | inactive | – | – | – | inactive | inactive | –
19 | [Br-].c1ccc([P+](Cc2cccc3cccnc23)(c2ccccc2)c2ccccc2)cc1 | – | – | inactive | – | – | – | – | Toxic | inactive | – | inactive | inactive | – | – | – | – | – | – | –
20 | [Br-].c1ccc([P+](c2ccccc2)(c2ccccc2)c2ccccc2)cc1 [TETRAPHENYLPHOSPHONIUM BROMIDE] | – | – | – | – | – | – | inactive | Toxic | – | inactive | inactive | inactive | – | Toxic | – | – | – | inactive | –
21 | Cc1ccc([P+](Cc2ccccc2)(c2ccccc2)c2ccccc2)cc1.[Cl-] | inactive | inactive | inactive | Toxic | inactive | inactive | – | Toxic | – | inactive | inactive | inactive | inactive | Toxic | – | Toxic | inactive | inactive | –
22 | N=C(N)c1ccc(/C=C/c2ccc(C(=N)N)cc2)cc1 [STILBAMIDINE] | – | – | Active | – | Active | – | Active | – | Active | Active | Active | – | Active | – | 98 | – | Active | Active | inactive
23 | CCOc1ccc(C[P+](c2ccccc2)(c2ccccc2)c2ccccc2)cc1.[Cl-] | – | – | inactive | – | – | – | – | Toxic | – | – | inactive | inactive | – | Toxic | – | – | – | inactive | –
24 | Cc1ccc(C[P+](c2ccccc2)(c2ccccc2)c2ccccc2)cc1.[Br-] | – | – | – | Toxic | – | – | – | Toxic | – | – | – | – | – | Toxic | – | Toxic | – | – | –
